Source: patent US20210214376A1, “HALOGENATED BIOTIN-MODIFIED DIMER AND USE THEREOF” (The University of Tokyo, priority 2018, published 2021)

How the values were obtained:
[1] = tested on: Herceptin-V2122; assay: Binding assay of astatine-labeled Psyche B and Herceptin-Cupid using Ni-NTA magnetic beads; conditions: Herceptin-V2122 solution versus PBS control; 5.8 kBq; FIG. 5
Protocol: In order to confirm whether or not astatine-labeled Psyche B has binding ability to Cupid, a binding assay was carried out using Herceptin-Cupid and Ni-NTA magnetic beads (manufactured by Thermo) that bind to a 6×His-tag added to Herceptin-Cupid. Psyche B-At211 used herein was prepared according to Example 1(4), whereas Herceptin-Cupid was prepared according to the method described in Japanese Patent Application 2018-247363, as described above. The specific assay method is as follows.
That is, 4 μL of Herceptin-V2122 solution or PBS used as a control was dispensed into a 1.5-mL tube. Into the tube, 10 μL (corresponding to 5.8 kBq) of Psyche-At211 was added, and the obtained mixture was then incubated at room temperature for 5 minutes. Subsequently, 10 μL of Ni-NTA magnetic beads equilibrated with PBS were added to the reaction mixture, and the thus obtained mixture was then incubated at room temperature for 5 minutes. Thereafter, the beads were precipitated and immobilized by using a magnet, and a supernatant was then recovered. The supernatant was washed with 100 μL of PBS twice, and the radiation dose was then counted using a gamma counter. The results are shown in the graph of FIG. 5.

[2] = tested on: HER2-positive SKOV3 cells; assay: Binding of astatine-labeled Psyche B to Herceptin-V2122 pre-bound to SKOV3 cells; type: cell-based; conditions: 10 kBq/tube; Herceptin-V2122 versus negative control CEA-V2122; FIG. 6
Protocol: (§1) Whether or not astatine-labeled Psyche B has binding ability to Herceptin-V2122, which had previously been bound to HER2-positive SKOV3 cells, was confirmed. As a negative control, CEA-V2122 was used. Psyche B-At211 used herein was prepared according to Example 1(4), whereas Herceptin-V2122 and CEA-V2122 were prepared according to the method described in Japanese Patent Application 2018-247363, as described above. The specific assay method is as follows.
(§2) Four 1.5-mL tubes were prepared, and the cells were then dispersed into each tube to a cell density of 0.875×10^6 cells/tube. Herceptin-V2122 was added to two tubes to result in N=2, whereas CEA-V2122 was added to the remaining two tubes. Subsequently, incubation was carried out on ice for 1 hour, and astatine-labeled Psyche B was then added to the resultant to 10 kBq/tube. Thereafter, the obtained mixture was incubated at room temperature for 30 minutes, while shaking. Finally, the cells were precipitated by centrifugation, and a supernatant was then recovered. The supernatant was washed with PBS twice, and the radiation dose was then counted using a gamma counter. The results are shown in the graph of FIG. 6.

[3] = molecular target: T1, CEA-V2122 (Streptomyces avidinii, UniProt P22629, E125D/E140N/N47D/N73G/R108K/R127K/S51D/S69N/Y107S/Y46S); assay: Analysis of affinity of CEA-V2122 for Psyche B-iodine and Psyche P-iodine (Biacore T200, Single-Cycle Kinetics); type: binding; conditions: for kon: read-out: Ka
T1 construct: At the C-terminus a 6xHis tag; The expressed gene carries a pelB signal
T1 sequence (P22629 whole entry E125D/E140N/N47D/N73G/R108K/R127K/S51D/S69N/Y107S/Y46S, looked up): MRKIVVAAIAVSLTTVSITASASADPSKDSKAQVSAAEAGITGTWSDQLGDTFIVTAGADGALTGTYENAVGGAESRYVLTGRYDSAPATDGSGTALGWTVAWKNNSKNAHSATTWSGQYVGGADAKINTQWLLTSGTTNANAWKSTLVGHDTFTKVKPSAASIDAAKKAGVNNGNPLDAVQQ
Text: (§3) The data regarding the affinity of CEA-V2122 for Psyche B-iodine and for Psyche P-iodine were obtained in accordance with the description of Japanese Patent Application 2018-247363. Briefly stating, using an amine coupling kit (GE Healthcare Life Sciences), Sensor Chip CM5 (GE Healthcare Life Science) was set to be a target value that was 5000 RU, and the purified CEA-V2122 was immobilized. With regard to the concentration of the analyte, 5 types of two-fold serial dilutions from 1E-08 M to 6.25E-10 M were used. Biacore T200 (GE Healthcare Life Sciences) was used, the measurement temperature was set to be 25° C., and kinetics data were then obtained according to Single-Cycle Kinetics analysis. Using Biacore T200 Evaluation Software, version 2.0 (GE Healthcare Life Sciences), the obtained data were subjected to curve fitting in a Bivalent Analyze mode, and the evaluation value of each parameter was obtained. The dissociation constant KD is obtained according to Kd/Ka=KD.

[4] = molecular target: T2, CEA-V2122 (Streptomyces avidinii, UniProt P22629, Y46S/N47D/S51D/S69N/N73G/Y107S/R108K/E125D/R127K/E140N); assay: as above; type: binding; conditions: for bond with CEA-V2122: conclusion from Table 1; for koff: immobilized CEA-V2122, 25° C., Bivalent Analyze mode curve fitting
T2 construct: At the C-terminus a 6xHis tag; The expressed gene carries a pelB signal
T2 sequence (P22629 whole entry Y46S/N47D/S51D/S69N/N73G/Y107S/R108K/E125D/R127K/E140N, looked up): as the sequence (P22629 whole entry E125D/E140N/N47D/N73G/R108K/R127K/S51D/S69N/Y107S/Y46S, looked up) above
Text: as §3

[5] = molecular target: T3, HER2 (ERBB2) on HER2-positive SKOV3 ovarian cancer cells (UniProt P04626 23-1255, limits assumed); assay: astatine-211-labeled Psyche B counted by gamma counter on SKOV3 cells pre-incubated with the fusion protein; CEA-V2122 as negative control
T3 construct: whole, on cells
Protocol: as §1
as §2, with “0.875×10⁶” for “0.875×10^6”, “6. The measurement results were Herceptin-V2122-dependent, and it was confirmed that Psyche B-At212 bound to the SKOV3 cells via Herceptin-V2122.” for “6.”

Which “precipitation with Ni-NTA magnetic beads, radiation dose by gamma counter” value [1] does the source give for `N=C1N[C@H]2[C@H](CS[C@H]2CCCCC(=O)NCCCCCC(=O)Nc2cc(NC(=O)CCCCCNC(=O)CCCC[C@@H]3SC[C@@H]4NC(=N)N[C@@H]43)cc(C(=O)NCCOCCOCCNC(=O)c3cccc([211At])c3)c2)N1.O=C(O)C(F)(F)F.O=C(O)C(F)(F)F` [Psyche B-At211, (3aS,3a′S,4S,4′S,6aR,6a′R)-4,4′-(((((5-((2-(2-(2-(3-(Astato-^211At)benzamido)ethoxy)ethoxy)ethyl)carbamoyl)-1,3-phenylene)bis(azanediyl))bis(6-oxohexane-6,1-diyl))bis(azanediyl))bis(5-oxopentane-5,1-diyl))bis(tetrahydro-1H-thieno[3,4-d]imidazol-2(3H)-iminium) 2,2,2-trifluoroacetate] here?
Its value is “precipitated in a Herceptin-V2122 presence-dependent manner”.

What about the “binding to SKOV3 cells, radiation dose by gamma counter” value [2] of the same molecule?
The value was “bound to the SKOV3 cells via Herceptin-V2122”.

`N=C1N[C@H]2[C@H](CS[C@H]2CCCCC(=O)NCCCCCC(=O)Nc2cc(NC(=O)CCCCCNC(=O)CCCC[C@@H]3SC[C@@H]4NC(=N)N[C@@H]43)cc(C(=O)NCCOCCOCCNC(=O)c3cccc(I)c3)c2)N1` [Psyche B-iodine, (3aS,3a′S,4S,4′S,6aR,6a′R)-4,4′-(((((5-((2-(2-(2-(3-Iodobenzamido)ethoxy)ethoxy)ethyl)carbamoyl)-1,3-phenylene)bis(azanediyl))bis(6-oxohexane-6,1-diyl))bis(azanediyl))bis(5-oxopentane-5,1-diyl))bis(tetrahydro-1H-thieno[3,4-d]imidazol-2(3H)-iminium) 2,2,2-trifluoroacetate] was tested. Which Kd [3] did it give?
Its Kd is 0.022 nM.

And the kon [3]?
Its kon is 29000 M⁻¹ s⁻¹.

And the “bond with CEA-V2122” value [4]?
Its value is “form a stable bond with CEA-V2122”.

And the koff [4]?
Its koff is 6.4e-07 s⁻¹.

`N=C1N[C@H]2[C@H](CS[C@H]2CCCCCOCCCCNC(=O)CN(CCOCCOCCNC(=O)c2cccc(I)c2)CC(=O)NCCCCOCCCCC[C@@H]2SC[C@@H]3NC(=N)N[C@@H]32)N1` [Psyche P-iodine, 2,2′-((2-(2-(2-(3-Iodobenzamido)ethoxy)ethoxy)ethyl)azanediyl)bis(N-(4-((5-((3aS,4S,6aR)-2-iminohexahydro-1H-thieno[3,4-d]imidazol-4-yl)pentyl)oxy)butyl)acetamide) 2,2,2-trifluoroacetate] was tested. Which Kd [3] did it give?
The Kd was 4.5 nM.

What about the kon [3] of the same molecule?
The kon was 6800 M⁻¹ s⁻¹.

And the “bond with CEA-V2122” value [4]?
The value was “form a stable bond with CEA-V2122”.

And the koff [4]?
Its koff is 3.1e-05 s⁻¹.

B1: CEA-V2122 (scFv)
scFv: QVKLEQSGAEVVKPGASVKLSCKASGFNIKDSYMHWLRQGPGQRLEWIGWIDPENGDTEYAPKFQGKATFTTDTSANTAYLGLSSLRPEDTAVYYCNEGTPTGPYYFDYWGQGTLVTVSSGGGGSGGGGSGGGGSENVLTQSPSSMSVSVGDRVNIACSASSSVPYMHWLQQKPGKSPKLLIYLTSNLASGVPSRFSGSGSGTDYSLTISSVQPEDAATYYCQQRSSYPLTFGGGTKLEIKGGGGSGGGGAEAGITGTWSDQLGDTFIVTAGADGALTGTYENAVGGAESRYVLTGRYDSAPATDGSGTALGWTVAWKNNSKNAHSATTWSGQYVGGADAKINTQWLLTSGTTNANAWKSTLVGHDTFTKVKPSAASHHHHHH
notes: Fusion of an anti-CEACAM5 scFv and mutant streptavidin V2122; also called scFv-V2122 (anti-CEACAM5)
Does B1 bind [5]?
Result: no binding
